Results: BindingDB's records for doi:10.1021/jm900735p (Pharmacy School of Wenzhou Medical College, 2009)

Molecular target: Xanthine dehydrogenase/oxidase (Rattus norvegicus, UniProt P22985)
Assay: Inhibition of rat liver xanthine oxidase after 2 hrs by spectrophotometry

Chain of Xanthine dehydrogenase/oxidase (P22985 whole entry): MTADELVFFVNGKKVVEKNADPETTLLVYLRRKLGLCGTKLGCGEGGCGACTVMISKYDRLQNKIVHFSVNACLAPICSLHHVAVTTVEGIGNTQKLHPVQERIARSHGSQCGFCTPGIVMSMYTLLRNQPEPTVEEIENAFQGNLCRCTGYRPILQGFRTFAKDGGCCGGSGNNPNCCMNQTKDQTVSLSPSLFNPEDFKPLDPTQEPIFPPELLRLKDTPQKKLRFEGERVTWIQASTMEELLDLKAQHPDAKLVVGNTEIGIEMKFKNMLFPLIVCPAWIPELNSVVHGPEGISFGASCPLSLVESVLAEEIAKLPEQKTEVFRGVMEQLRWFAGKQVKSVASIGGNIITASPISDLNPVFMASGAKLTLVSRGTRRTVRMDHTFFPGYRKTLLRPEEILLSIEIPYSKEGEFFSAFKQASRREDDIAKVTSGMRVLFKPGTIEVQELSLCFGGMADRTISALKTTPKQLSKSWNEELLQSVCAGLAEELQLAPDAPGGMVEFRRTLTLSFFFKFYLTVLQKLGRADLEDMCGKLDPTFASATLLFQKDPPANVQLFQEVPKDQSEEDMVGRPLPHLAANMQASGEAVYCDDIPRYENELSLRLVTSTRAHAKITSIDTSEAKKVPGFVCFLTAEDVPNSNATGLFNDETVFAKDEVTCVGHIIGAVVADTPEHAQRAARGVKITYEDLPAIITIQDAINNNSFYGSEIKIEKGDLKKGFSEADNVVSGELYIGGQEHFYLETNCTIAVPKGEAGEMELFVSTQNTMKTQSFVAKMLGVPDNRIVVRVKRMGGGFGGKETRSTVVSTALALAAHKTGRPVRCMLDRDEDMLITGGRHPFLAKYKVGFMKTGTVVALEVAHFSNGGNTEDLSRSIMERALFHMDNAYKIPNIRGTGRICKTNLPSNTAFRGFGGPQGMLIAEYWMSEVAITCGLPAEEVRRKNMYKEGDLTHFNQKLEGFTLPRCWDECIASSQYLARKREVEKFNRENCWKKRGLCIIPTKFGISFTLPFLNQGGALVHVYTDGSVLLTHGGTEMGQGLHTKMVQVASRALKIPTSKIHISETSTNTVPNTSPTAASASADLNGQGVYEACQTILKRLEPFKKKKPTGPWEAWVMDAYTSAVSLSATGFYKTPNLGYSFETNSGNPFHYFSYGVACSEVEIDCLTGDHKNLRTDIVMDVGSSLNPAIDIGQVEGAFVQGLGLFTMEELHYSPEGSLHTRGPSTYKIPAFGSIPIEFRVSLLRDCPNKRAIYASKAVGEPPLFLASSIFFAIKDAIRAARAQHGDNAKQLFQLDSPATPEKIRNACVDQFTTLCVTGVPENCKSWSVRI

Row | Compound | IC50
1 | COc1cc(C2Oc3cc(-c4oc5cc(O)cc(=O)c-5c(O)c4O)ccc3OC2CO)ccc1O (configuration not stated) [Dehydrosilylbin] | 80.3 µM
2 | COc1cc([C@@H]2Oc3cc(C4Oc5cc(O)cc(O)c5C(O)C4=O)ccc3O[C@H]2CO)ccc1O (some centres not stated) [SMR000857154] | 80.3 µM
